Measurements reported in patent publication US5362412A, “Biodegradable bleach stabilizers for detergents” (priority 1991, dated 1994).

Experiments:
[1] = Perborate stabilization in the presence of Mn ions (peroxide remaining after hot storage, iodine/starch titration); conditions: pH 10.1
Procedure: (§1) The hydrogen peroxide responsible for the bleaching action in sodium perborate based laundry detergents is decomposed catalytically by transition metal ions such as Mn^II and Cu^II. This degradation can be prevented by complexing the metal ions.
(§2) The peroxide stabilizing effect of stabilizers in accordance with the invention was tested by measuring the peroxide present before and after storage in a hot aqueous solution which contains copper or manganese ions.
(§3) A solution of 0.2 g (2×10^-3 mols) sodium perborate monohydrate; 10.0 ml of hardness standard (3:1 CaCl2 :MgCl2, 1×10^-6 mols total); 3.0 ml of metal standard (5.4×10^-8 mol Mn^II or 4.7×10^-8 mols Cu^II); and 2.0 ml stabilizer solution (4.2×10^-7 mols stabilizer) was diluted to 100 ml with distilled water. The pH was adjusted to 10.1 and the solution was stirred at 70° C. for 20 minutes. Ten ml aliquots of the solution were tested after 10 minutes by first neutralizing the solution with sulfuric acid and then titrating with iodine and starch.
(§4) The percentage of peroxide remaining after storage was determined using a starch/iodine titration procedure.

[2] = Perborate stabilization in the presence of Cu ions (peroxide remaining after hot storage, iodine/starch titration); conditions: pH 10.1
Procedure: as §1, §2, §3, §4

[3] = Sodium perborate stabilization in wash liquors (bleaching of grape juice stained swatches); conditions: 5.2×10^-5 mol/l stabilizer, sodium perborate-monohydrate 0.8 g/l, 50° C., 15 minutes, pH 10.3; for ΔE (brightness of the swatches): Fe^III, Cu^II, Mn^II; for % Stain Removal: in duplicate
Procedure: The efficiency of the bleaching action of a laundry detergent containing the stabilizers of the invention was measured by washing white poly-cotton fabric swatches previously stained with grape juice. The test was carried out using the following detergent formulation: […]
Sodium Dodecyl Benzene Sulfonate
Grape juice stained, poly-cotton fabric swatches purchased from Scientific Services, Oakland, N.J., were washed in a Tergitometer at 50° C. for 15 minutes in a wash solution containing sodium perborate-monohydrate 0.8 g/l; 4.0 g/l of the zeolite-based detergent as described above; 100 ppm Hardness (3:1 Ca:Mg); 2 ppm Fe^III; 1 ppm Cu^II; and 1 ppm Mn^II (from AA standards); and 5.2×10^-5 mol/l stabilizer. The pH of the wash solution was 10.3. The swatches were then rinsed for 5 minutes in 25° C. water and air dried.
The efficiency of the bleaching action was determined by measuring the brightness (ΔE) of the swatches and the percentage of soil removed from the swatches.
ΔE was calculated in accordance with ASTM E 308-66(81) standards, using the following formula: [formula] wherein L=Lightness 0 black, 100 white a=Redness if +, Greenness if -, Gray is 0 b=Yellow if +, Blue if -, Gray is 0
Δ measurements are before and after washing
Percent stain removal was calculated in duplicate in accordance with ASTM D3050-75 standards, using the following formula: [formula] where D=reflectance by detergent head with green filter (brightness).

[4] = conventional tests; cited from earlier work
[5] = 5.4×10^-8 mol Mn^II, 4.2×10^-7 mols stabilizer in 100 ml, 70° C.
[6] = 4.7×10^-8 mols Cu^II, 4.2×10^-7 mols stabilizer in 100 ml, 70° C.

Row | Stability in Presence of Mn^2 Ions, % Remaining [1] [%] | Stability in Presence of Cu^+2 Ions, % Remaining [2] [%] | Stability in Presence of Mn^2 Ions, % Remaining [1, 5] [%] | Stability in Presence of Cu^+2 Ions, % Remaining [2, 6] [%] | SMILES | ΔE (brightness of the swatches) [3] | % Stain Removal [3] [%] | biodegradability [4]
1 | 21.5 | 0.0 |  |  | O=C(O)CNC(CC(=O)O)C(=O)O (stereo not drawn) [AspMA, Aspartic acidN-monoacetic acid] | 87.6 | 84.4 | 
2 |  |  | 45.0 | 50.4 | O=C(O)CCN(CC(=O)O)CC(=O)O [BADA] | 98.0 | 83.3 | 
3 |  |  | 54.5 | 31.3 | O=C(O)CSC(CC(=O)O)C(=O)O (stereo not drawn) [CMMS, Carboxymethylmercaptosuccinic acid] | 102.3 | 84.5 | 
4 |  |  | 25.6 | 28.6 | O=C(O)CC(C(=O)O)N(CC(=O)O)CC(=O)O (stereo not drawn) [AspDA, Aspartic acidN,N-diacetic acid] | 93.9 | 83.7 | 
5 |  |  |  |  | CC(CN(CC(=O)O)CC(=O)O)N(CC(=O)O)CC(=O)O (stereo not drawn) [PDTA, propylenediaminetetraacetic acid] |  |  | insufficiently biodegradable
6 |  |  | 13.6 | 79.0 | O=C(O)CC(NC(CC(=O)O)C(=O)O)C(=O)O (stereo not drawn) [ISA, Iminodisuccinic acid] | 92.7 | 81.4 | 
7 |  |  |  |  | O=C(O)CN(CC(=O)O)CC(O)CN(CC(=O)O)CC(=O)O [HPDTA, hydroxypropylenediaminetetraacetic acid] |  |  | insufficiently biodegradable

Row | SMILES | Stability in Presence of Mn^2 Ions, % Remaining [1] [%] | Stability in Presence of Cu^+2 Ions, % Remaining [2] [%] | Stability in Presence of Mn^2 Ions, % Remaining [1, 5] [%] | Stability in Presence of Cu^+2 Ions, % Remaining [2, 6] [%] | ΔE (brightness of the swatches) [3] | % Stain Removal [3] [%] | biodegradability [4]
8 | O=C(O)CN(CCN(CC(=O)O)CC(=O)O)CC(=O)O [EDTA, Ethylenediaminetetraacetic acid, reference compound] |  |  | 87.5 | 82.8 | 86.2 | 79.7 | insufficiently biodegradable
